Earlier results on 1 substance are cited in US20120046172A1, “METHODS FOR USE OF TRIALKYLBENZYLAMMONIUM HALIDE COMPOSITIONS AS NON-SELECTIVE TERRESTRIAL PLANT HERBICIDES” (priority 2010, published 2012).

Series [1] has as its system wheat plants. The following applies: compositions with ADBAC concentrations in the range of 0.1 to 1%; DD215228.
The subject of series [2] is bean plants. The following applies: compositions with ADBAC concentrations in the range of 0.1 to 1%; DD215228.

For the substance “alkyldimethylbenzyl ammonium chloride [ADBAC]”, the “Effect on wheat plants” value in series [1] was “plant stunting”. The “Effect on bean plants” value in series [2] is “leaf desiccation and defoliation”.
